Laboratory results taken from patent publication US10272078B2, “Crystalline forms of a prolyl hydroxylase inhibitor” (FibroGen, Inc., priority 2012, dated 2019).
Each block holds one molecule with its values, some of them ahead of it.

Legend:
[1] = Solid form stability on storage (XRPD); type: physicochemical; details: for XRPD pattern after storage: 40° C./75% RH
Source text: X-Ray Powder Diffraction patterns were collected on a Bruker AXS C2 GADDS diffractometer using Cu Kα radiation (40 kV, 40 mA), automated XYZ stage, laser video microscope for auto-sample positioning and a HiStar 2-dimensional area detector. X-ray optics consists of a single Gobel multilayer mirror coupled with a pinhole collimator of 0.3 mm. […] The beam divergence, i.e. the effective size of the X-ray beam on the sample, was approximately 4 mm. […] Typically the sample would be exposed to the X-ray beam for 120 seconds. The software used for data collection was GADDS for WNT 4.1.16 and the data were analyzed and presented using Diffrac Plus EVA v11.0.0.2 or v13.0.0.2. Alternatively, X-Ray Powder Diffraction patterns were collected on a Bruker D8 diffractometer using Cu Kα radiation (40 kV, 40 mA), θ-2θ goniometer, and divergence of V4 and receiving slits, a Ge monochromator and a Lynxeye detector. […] The software used for data collection was Diffrac Plus XRD Commander v2.5.0 and the data were analyzed and presented using Diffrac Plus EVA v11.0.0.2 or v13.0.0.2. Samples were run under ambient conditions as flat plate specimens using powder as received. The sample was gently packed into a cavity cut into polished, zero-background (510) silicon wafer. The sample was rotated in its own plane during analysis. The details of the data collection are: • Angular range: 2 to 42° 2θ • Step size: 0.05° 2θ • Collection time: 0.5 s/step • Analysis duration: 7 minutes Differential Scanning Calorimetry (DSC)

Moisture sorption = type: physicochemical; details: between 5% to 95% relative humidity; lost on desorption

- XRPD pattern after storage [1]: Pattern 3 was observed
Molecule: Cc1nc(C(=O)NCC(=O)O)c(O)c2ccc(Oc3ccccc3)cc12.NCCO [Compound A ethanolamine salt, [(4-hydroxy-1-methyl-7-phenoxy-isoquinoline-3-carbonyl)-amino]-acetic acid ethanolamine salt]

Molecule: [(4-hydroxy-1-methyl-7-phenoxy-isoquinoline-3-carbonyl)-amino]-acetic acid diethanolamine salt [Compound A diethanolamine salt]
- XRPD pattern after storage [1]: Pattern 2 was observed

Molecule: [(4-hydroxy-1-methyl-7-phenoxy-isoquinoline-3-carbonyl)-amino]-acetic acid hemihydrate [Compound A Form B]
- change of crystalline pattern on storage ([1]; 25° C./96% RH for twelve days): reverting to Form A
- change of crystalline form on storage (high resolution XRPD) ([1]; ambient temperature, a full month (32 days)): almost completely reverted to anhydrous Form A

- moisture sorption weight gain (Moisture sorption): approximately 0.2%
Molecule: Cc1nc(C(=O)NCC(=O)O)c(O)c2ccc(Oc3ccccc3)cc12 [Compound A Form A, [(4-hydroxy-1-methyl-7-phenoxy-isoquinoline-3-carbonyl)-amino]-acetic acid]
